Reference: US9060988B2, “Method for treating pulmonary fibrosis using a pharmaceutical composition containing stanniocalcin 1 (STC1)” (Tohoku University, priority 2011, dated 2015)

Key:
[1] = system: bleomycin pulmonary fibrosis model; assay: Fibrillization suppressing effect in bleomycin pulmonary fibrosis model mouse (histopathologic staining of lung); format: in vivo, C57BL6/J mice; set-up: key to 8OHDG (extent of peroxides accumulation) / HE (fibrillization) / EM (fibrillization): −: not observed; +: mild; ++: moderate; +++: severe; conditions: for 8OHDG staining of lung tissue (amount of peroxides, FIG. 7) / fibrillization (HE and EM stained images, FIGS. 1 to 5): bleomycin model; for 8OHDG staining of lung tissue (amount of peroxides, FIG. 7): extent similar to that of the normal lung group; for fibrillization (HE and EM stained images, FIGS. 1 to 5) / response on progression of pulmonary fibrosis: intratracheal administration; for fibrillization (HE and EM stained images, FIGS. 1 to 5): versus saline control group in which fibrillization was induced; for response on progression of pulmonary fibrosis: bleomycin pulmonary fibrosis model; for 8OHDG (extent of peroxides accumulation) / EM (fibrillization) / HE (fibrillization): lung tissue, one week after intratracheal administration together with bleomycin, STC1 500 ng, NAC 3 mg; for 8OHDG (extent of peroxides accumulation): 8OHDG staining; for EM (fibrillization): Elastica-Masson staining; for HE (fibrillization): HE staining
From the text: The action of STC1 was investigated using a pulmonary fibrosis model utilizing the mitotic inhibitory action of an anticancer agent, bleomycin (Bleo), as the disease model mouse.
Human recombinant (r) STC1 was produced by BioVender, Inc. Specifically, human-derived STC1 gene added with a TAG structure was introduced into the 293 cells, and rSTC1 was separated using the TAG sequence.
Specifically, C57BL6/J mice (female, 10 weeks old), four animals in each group, were anesthetized by intraperitoneally administering an anesthetic agent (obtained by diluting 300 μg of ketamine hydrochloride and […] of xylazine in 100 μL of physiological saline). Thereafter, the cervix was cut open to expose a trachea, and the jacket of a 23G SURFLO needle was inserted into the trachea. Then, the following drugs were respectively administered intratracheally through the SURFLO jackets to the mice of each group.
(1) Saline control group: 50 μL of bleomycin-containing physiological saline (bleomycin concentration: 400 ng/mL)
(2) STC1-administered group: 500 ng of STC1+50 μL of bleomycin-containing physiological saline
(3) NAC-administered group (positive control): 3 mg of NAC+50 μL of bleomycin-containing physiological saline
(4) Normal lung group: 50 μL of physiological saline
After one week, the mice were euthanized by anesthetizing the mice as described above and then cutting the carotid artery, and subsequently, the lungs were removed. The extirpated lung tissues were subjected to histopathologic staining (HE (hematoxylin eosin) staining, EM (Elastica-Masson staining), and 8OHDG staining) by standard methods.

[2] = literature report; cited from earlier work

Compound	8OHDG staining of lung tissue (amount of peroxides, FIG. 7) [1]	fibrillization (HE and EM stained images, FIGS. 1 to 5) [1]	response on progression of pulmonary fibrosis [1]	8OHDG (extent of peroxides accumulation) [1]	EM (fibrillization) [1]	HE (fibrillization) [1]	suppression of the immune system [2]
CC(=O)N[C@@H](CS)C(=O)O [NAC, N-acetylcysteine, reference compound]	poorly stained	fibrillization was suppressed	amelioration	+	+~++	+~++	–
Stanniocalcin 1 [STC1]	poorly stained	fibrillization was suppressed	complete response	+	+	+	does not cause suppression of the immune system
